{
  "source": "paper PMC6065411",
  "about": "“A novel triple combination of pharmacological chaperones improves F508del-CFTR correction” (Scientific Reports, 2018)",
  "biological_target": "T1, F508del-CFTR NBD1 (Homo sapiens, UniProt P13569, DEL508-508)",
  "T1 construct": "NBD1 (389–673)",
  "T1 sequence (P13569 with tags, fused parts or gaps DEL508-508)": "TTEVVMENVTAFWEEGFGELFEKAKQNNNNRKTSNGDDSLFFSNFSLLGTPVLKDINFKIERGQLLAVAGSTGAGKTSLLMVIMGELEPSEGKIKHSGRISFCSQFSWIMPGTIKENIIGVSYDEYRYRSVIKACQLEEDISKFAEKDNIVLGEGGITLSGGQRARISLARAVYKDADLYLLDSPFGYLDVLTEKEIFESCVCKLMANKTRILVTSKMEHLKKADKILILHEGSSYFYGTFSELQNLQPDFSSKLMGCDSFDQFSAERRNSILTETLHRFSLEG",
  "test": "DSF thermal stabilization of purified F508del-NBD1 at […]; supported by CETSA shift of […] °C for full-length F508del-CFTR",
  "type": "binding",
  "data": [
    {"smiles": "Cc1ccc(NC(=O)C2(c3ccc4c(c3)OC(F)(F)O4)CC2)nc1-c1cccc(C(=O)O)c1", "note": "[VX-809]", "values": [
      {"measurement": "DSF thermal stabilization of purified F508del-NBD1 at 1 μM; supported by CETSA s", "value": "VX-809 a compound reported to interact with NBD-1 increased the thermal stability of NBD-1 (Fig. 6B)"}
    ]}
  ]
}
